Experiments:
Experiment in all cases: relative viability (nuclei count vs DMSO), 5 days (fraction); higher = more cells survive
RO-3306 + OSI-027 = compound: C1=CC2=C(C=CC(=C2)C=C3C(=O)NC(=NCC4=CC=CS4)S3)N=C1 [RO-3306] + COc1cccc2cc(-c3nc([C@H]4CC[C@H](C(=O)O)CC4)n4ncnc(N)c34)[nH]c12 [OSI-027] (partner 0.5 µM)
Outline: (§1)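 One day after seeding in 1536-well plates, lung cancer cell lines were dosed by pin tool. Dosing was either single-drug or a fixed anchor-drug dose plus five library-drug doses (not always all listed) in √10 steps. After 5 days, nuclei were stained in one fix-and-stain step and counted on 4× images, and relative viability is the nuclei count of treated wells over that of vehicle wells, given as the median of duplicate plates.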

RO-3306 + Vorinostat = compound: C1=CC2=C(C=CC(=C2)C=C3C(=O)NC(=NCC4=CC=CS4)S3)N=C1 [RO-3306] + O=C(CCCCCCC(=O)Nc1ccccc1)NO [Vorinostat] (partner 1 µM)
Outline: as §1

[1] = compound: O=S(=O)(c1ccccc1)N(CC(F)(F)F)c1ccc(C(O)(C(F)(F)F)C(F)(F)F)cc1 + COc1cc2c(Oc3ccc(NC(=O)C4(C(=O)Nc5ccc(F)cc5)CC4)cc3F)ccnc2cc1OCCCN1CCOCC1 [Foretinib] (partner 0.25 µM)
Outline: as §1

[2] = compound: O=S(=O)(c1ccccc1)N(CC(F)(F)F)c1ccc(C(O)(C(F)(F)F)C(F)(F)F)cc1 + CS(=O)(=O)N1CCN(Cc2cc3nc(-c4cccc5[nH]ncc45)nc(N4CCOCC4)c3s2)CC1 [Pictilisib] (partner 1 µM)
Outline: as §1

[3] = compound: O=S(=O)(c1ccccc1)N(CC(F)(F)F)c1ccc(C(O)(C(F)(F)F)C(F)(F)F)cc1 + O=C(c1cc(Cc2n[nH]c(=O)c3ccccc23)ccc1F)N1CCN(C(=O)C2CC2)CC1 [Olaparib] (partner 8 µM)
Outline: as §1

Cell Line: 201T
- relative viability (RO-3306 + OSI-027; first compound 0.01 µM): 0.586
- relative viability (RO-3306 + OSI-027; first compound 0.03162 µM): 0.729
- relative viability (RO-3306 + OSI-027; first compound 0.1 µM): 0.709
- relative viability (RO-3306 + OSI-027; first compound 0.3162 µM): 0.779
- relative viability (RO-3306 + OSI-027; first compound 1 µM): 0.672
- relative viability (RO-3306 + Vorinostat; first compound 0.01 µM): 1.03
- relative viability (RO-3306 + Vorinostat; first compound 0.03162 µM): 0.974
- relative viability (RO-3306 + Vorinostat; first compound 0.1 µM): 0.959
- relative viability (RO-3306 + Vorinostat; first compound 0.3162 µM): 1.03
- relative viability (RO-3306 + Vorinostat; first compound 1 µM): 1.02
- relative viability ([1]; first compound 0.8 µM): 1.1
- relative viability ([1]; first compound 2.53 µM): 0.968
- relative viability ([1]; first compound 8 µM): 0.92
- relative viability ([2]; first compound 0.8 µM): 0.632
- relative viability ([2]; first compound 2.53 µM): 0.628
- relative viability ([2]; first compound 8 µM): 0.82
- relative viability ([3]; first compound 0.8 µM): 0.815
- relative viability ([3]; first compound 2.53 µM): 0.793
- relative viability ([3]; first compound 8 µM): 0.819

Cell Line: A549
- relative viability ([1]; first compound 0.8 µM): 0.962
- relative viability ([1]; first compound 2.53 µM): 0.944
- relative viability ([1]; first compound 8 µM): 0.752
- relative viability ([2]; first compound 0.8 µM): 0.609
- relative viability ([2]; first compound 2.53 µM): 0.473
- relative viability ([2]; first compound 8 µM): 0.567
- relative viability ([3]; first compound 0.8 µM): 0.299
- relative viability ([3]; first compound 2.53 µM): 0.278
- relative viability ([3]; first compound 8 µM): 0.204

Cell Line: A-427
- relative viability (RO-3306 + OSI-027; first compound 0.01 µM): 0.459
- relative viability (RO-3306 + OSI-027; first compound 0.03162 µM): 0.457
- relative viability (RO-3306 + OSI-027; first compound 0.1 µM): 0.423
- relative viability (RO-3306 + OSI-027; first compound 0.3162 µM): 0.451
- relative viability (RO-3306 + OSI-027; first compound 1 µM): 0.497
- relative viability (RO-3306 + Vorinostat; first compound 0.01 µM): 0.843
- relative viability (RO-3306 + Vorinostat; first compound 0.03162 µM): 0.818
- relative viability (RO-3306 + Vorinostat; first compound 0.1 µM): 0.898
- relative viability (RO-3306 + Vorinostat; first compound 0.3162 µM): 0.911
- relative viability (RO-3306 + Vorinostat; first compound 1 µM): 0.865
- relative viability ([1]; first compound 0.8 µM): 1.1
- relative viability ([1]; first compound 2.53 µM): 0.967
- relative viability ([1]; first compound 8 µM): 1.09
- relative viability ([2]; first compound 0.8 µM): 0.708
- relative viability ([2]; first compound 2.53 µM): 0.677
- relative viability ([2]; first compound 8 µM): 0.822
- relative viability ([3]; first compound 0.8 µM): 0.807
- relative viability ([3]; first compound 2.53 µM): 0.673
- relative viability ([3]; first compound 8 µM): 0.778

Cell Line: ABC-1
- relative viability (RO-3306 + OSI-027; first compound 0.01 µM): 0.411
- relative viability (RO-3306 + OSI-027; first compound 0.03162 µM): 0.375
- relative viability (RO-3306 + OSI-027; first compound 0.1 µM): 0.402
- relative viability (RO-3306 + OSI-027; first compound 0.3162 µM): 0.483
- relative viability (RO-3306 + OSI-027; first compound 1 µM): 0.403
- relative viability (RO-3306 + Vorinostat; first compound 0.01 µM): 1.21
- relative viability (RO-3306 + Vorinostat; first compound 0.03162 µM): 1
- relative viability (RO-3306 + Vorinostat; first compound 0.1 µM): 1.03
- relative viability (RO-3306 + Vorinostat; first compound 0.3162 µM): 1.13
- relative viability (RO-3306 + Vorinostat; first compound 1 µM): 0.781
- relative viability ([1]; first compound 0.8 µM): 1.31
- relative viability ([1]; first compound 2.53 µM): 1.19
- relative viability ([1]; first compound 8 µM): 1.08
- relative viability ([2]; first compound 0.8 µM): 0.7
- relative viability ([2]; first compound 2.53 µM): 0.602
- relative viability ([2]; first compound 8 µM): 0.755
- relative viability ([3]; first compound 2.53 µM): 0.763
- relative viability ([3]; first compound 8 µM): 0.638

Cell Line: BEN
- relative viability (RO-3306 + OSI-027; first compound 0.01 µM): 0.333
- relative viability (RO-3306 + OSI-027; first compound 0.03162 µM): 0.3
- relative viability (RO-3306 + OSI-027; first compound 0.1 µM): 0.256
- relative viability (RO-3306 + OSI-027; first compound 0.3162 µM): 0.297
- relative viability (RO-3306 + OSI-027; first compound 1 µM): 0.283
- relative viability (RO-3306 + Vorinostat; first compound 0.01 µM): 0.565
- relative viability (RO-3306 + Vorinostat; first compound 0.03162 µM): 0.543
- relative viability (RO-3306 + Vorinostat; first compound 0.1 µM): 0.562
- relative viability (RO-3306 + Vorinostat; first compound 0.3162 µM): 0.595
- relative viability (RO-3306 + Vorinostat; first compound 1 µM): 0.55
- relative viability ([1]; first compound 0.8 µM): 0.568
- relative viability ([1]; first compound 2.53 µM): 0.527
- relative viability ([1]; first compound 8 µM): 0.578
- relative viability ([2]; first compound 0.8 µM): 0.585
- relative viability ([2]; first compound 2.53 µM): 0.533
- relative viability ([2]; first compound 8 µM): 0.616
- relative viability ([3]; first compound 0.8 µM): 0.889
- relative viability ([3]; first compound 2.53 µM): 0.875
- relative viability ([3]; first compound 8 µM): 0.876

Cell Line: CAL-12T
- relative viability (RO-3306 + OSI-027; first compound 0.01 µM): 0.378
- relative viability (RO-3306 + OSI-027; first compound 0.03162 µM): 0.615
- relative viability (RO-3306 + OSI-027; first compound 0.1 µM): 0.585
- relative viability (RO-3306 + OSI-027; first compound 0.3162 µM): 0.616
- relative viability (RO-3306 + OSI-027; first compound 1 µM): 0.597
- relative viability (RO-3306 + Vorinostat; first compound 0.01 µM): 1.08
- relative viability (RO-3306 + Vorinostat; first compound 0.03162 µM): 0.66
- relative viability (RO-3306 + Vorinostat; first compound 0.1 µM): 0.647
- relative viability (RO-3306 + Vorinostat; first compound 0.3162 µM): 0.809
- relative viability (RO-3306 + Vorinostat; first compound 1 µM): 0.694
- relative viability ([1]; first compound 0.8 µM): 1.06
- relative viability ([1]; first compound 2.53 µM): 0.962
- relative viability ([1]; first compound 8 µM): 0.936
- relative viability ([2]; first compound 2.53 µM): 0.342
- relative viability ([2]; first compound 8 µM): 0.542
- relative viability ([3]; first compound 0.8 µM): 0.686
- relative viability ([3]; first compound 2.53 µM): 0.616
- relative viability ([3]; first compound 8 µM): 0.591

Cell Line: COR-L23
- relative viability (RO-3306 + OSI-027; first compound 0.01 µM): 0.741
- relative viability (RO-3306 + OSI-027; first compound 0.03162 µM): 0.688
- relative viability (RO-3306 + OSI-027; first compound 0.1 µM): 0.783
- relative viability (RO-3306 + OSI-027; first compound 0.3162 µM): 0.632
- relative viability (RO-3306 + OSI-027; first compound 1 µM): 0.514
- relative viability (RO-3306 + Vorinostat; first compound 0.01 µM): 0.51
- relative viability (RO-3306 + Vorinostat; first compound 0.03162 µM): 0.412
- relative viability (RO-3306 + Vorinostat; first compound 0.1 µM): 0.489
- relative viability (RO-3306 + Vorinostat; first compound 0.3162 µM): 0.394
- relative viability (RO-3306 + Vorinostat; first compound 1 µM): 0.344
- relative viability ([1]; first compound 0.8 µM): 0.971
- relative viability ([1]; first compound 2.53 µM): 1.01
- relative viability ([1]; first compound 8 µM): 0.888
- relative viability ([2]; first compound 0.8 µM): 1.23
- relative viability ([2]; first compound 2.53 µM): 0.796
- relative viability ([2]; first compound 8 µM): 0.901
- relative viability ([3]; first compound 0.8 µM): 0.357
- relative viability ([3]; first compound 2.53 µM): 0.35
- relative viability ([3]; first compound 8 µM): 0.34

Cell Line: COR-L 105
- relative viability (RO-3306 + OSI-027; first compound 0.01 µM): 0.589
- relative viability (RO-3306 + OSI-027; first compound 0.03162 µM): 0.607
- relative viability (RO-3306 + OSI-027; first compound 0.1 µM): 0.64
- relative viability (RO-3306 + OSI-027; first compound 0.3162 µM): 0.864
- relative viability (RO-3306 + OSI-027; first compound 1 µM): 0.735
- relative viability (RO-3306 + Vorinostat; first compound 0.01 µM): 0.779
- relative viability (RO-3306 + Vorinostat; first compound 0.03162 µM): 0.773
- relative viability (RO-3306 + Vorinostat; first compound 0.1 µM): 0.77
- relative viability (RO-3306 + Vorinostat; first compound 0.3162 µM): 0.759
- relative viability (RO-3306 + Vorinostat; first compound 1 µM): 0.751
- relative viability ([1]; first compound 0.8 µM): 1.13
- relative viability ([1]; first compound 2.53 µM): 0.852
- relative viability ([1]; first compound 8 µM): 1.48
- relative viability ([2]; first compound 0.8 µM): 0.44
- relative viability ([2]; first compound 2.53 µM): 0.397
- relative viability ([2]; first compound 8 µM): 0.418
- relative viability ([3]; first compound 0.8 µM): 0.69
- relative viability ([3]; first compound 2.53 µM): 0.602
- relative viability ([3]; first compound 8 µM): 0.546

Cell Line: Calu-6
- relative viability ([1]; first compound 0.8 µM): 0.822
- relative viability ([1]; first compound 2.53 µM): 0.809
- relative viability ([1]; first compound 8 µM): 0.768
- relative viability ([2]; first compound 0.8 µM): 0.839
- relative viability ([2]; first compound 2.53 µM): 0.851
- relative viability ([2]; first compound 8 µM): 0.691
- relative viability ([3]; first compound 0.8 µM): 0.562
- relative viability ([3]; first compound 2.53 µM): 0.58
- relative viability ([3]; first compound 8 µM): 0.571

Source: the supplement of paper PMC10307832
